Legend:
[1] = target: T1, human recombinant HDAC1 (Homo sapiens, UniProt Q13547); experiment: In vitro HDAC enzyme activity inhibition assay (HDAC1); type: biochemical; details: Fluor de Lys-SIRT1 substrate 10 μM, 30° C., 60 minutes, fluorescence
T1 construct: purchased Enzo Life Sciences, Inc. BML-SE456
How it was run: (§1)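 Fluorimetric deacetylase kit: human recombinant HDAC1 or HDAC6 (0.3 μg) with 10 μM Fluor de Lys-SIRT1 substrate and 5-fold diluted compounds, 60 min at 30° C. Developer added for 30 min, fluorescence read at Ex 360/Em 460, IC50 calculated.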

[2] = target: T2, human recombinant HDAC6 (Homo sapiens, UniProt Q9UBN7); experiment: In vitro HDAC enzyme activity inhibition assay (HDAC6); type: biochemical; details: for HDAC6 selectivity (fold): HDAC6 over HDAC1; for IC50: same protocol as the HDAC1 test, human recombinant HDAC6 (Calbiochem)
T2 construct: purchased Calbiochem Inc. 382180
T2 sequence (Q9UBN7 1-1215): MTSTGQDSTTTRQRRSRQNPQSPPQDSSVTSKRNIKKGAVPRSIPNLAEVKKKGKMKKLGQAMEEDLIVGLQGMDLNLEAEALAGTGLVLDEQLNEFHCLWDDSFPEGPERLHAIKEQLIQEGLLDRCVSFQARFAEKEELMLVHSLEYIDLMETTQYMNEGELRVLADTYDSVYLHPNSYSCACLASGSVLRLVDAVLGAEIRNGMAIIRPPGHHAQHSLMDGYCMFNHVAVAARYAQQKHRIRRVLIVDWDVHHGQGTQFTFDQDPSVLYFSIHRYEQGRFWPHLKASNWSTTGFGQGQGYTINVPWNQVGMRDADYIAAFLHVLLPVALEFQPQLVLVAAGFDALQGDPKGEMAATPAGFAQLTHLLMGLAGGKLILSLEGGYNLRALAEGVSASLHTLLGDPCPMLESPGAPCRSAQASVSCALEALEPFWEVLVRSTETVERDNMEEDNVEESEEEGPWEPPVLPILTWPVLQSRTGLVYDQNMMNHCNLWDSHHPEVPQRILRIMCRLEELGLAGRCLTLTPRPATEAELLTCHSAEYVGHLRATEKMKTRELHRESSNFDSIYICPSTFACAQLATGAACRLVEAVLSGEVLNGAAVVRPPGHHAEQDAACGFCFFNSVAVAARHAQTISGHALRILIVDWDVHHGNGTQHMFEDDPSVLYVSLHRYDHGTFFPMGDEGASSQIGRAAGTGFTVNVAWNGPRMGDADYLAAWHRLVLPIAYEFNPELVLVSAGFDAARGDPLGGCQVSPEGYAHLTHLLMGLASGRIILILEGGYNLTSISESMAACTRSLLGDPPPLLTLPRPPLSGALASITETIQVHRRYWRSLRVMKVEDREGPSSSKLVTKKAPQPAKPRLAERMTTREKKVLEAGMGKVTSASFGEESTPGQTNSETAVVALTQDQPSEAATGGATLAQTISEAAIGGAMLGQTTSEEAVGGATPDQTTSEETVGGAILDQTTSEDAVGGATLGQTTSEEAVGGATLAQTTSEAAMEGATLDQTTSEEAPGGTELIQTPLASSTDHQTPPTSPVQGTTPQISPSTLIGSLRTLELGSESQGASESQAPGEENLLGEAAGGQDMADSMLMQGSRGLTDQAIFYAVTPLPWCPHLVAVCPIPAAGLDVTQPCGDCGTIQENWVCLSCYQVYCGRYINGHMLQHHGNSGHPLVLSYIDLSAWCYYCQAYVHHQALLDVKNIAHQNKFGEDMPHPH
How it was run: as §1

T1 sequence (Q13547 whole entry): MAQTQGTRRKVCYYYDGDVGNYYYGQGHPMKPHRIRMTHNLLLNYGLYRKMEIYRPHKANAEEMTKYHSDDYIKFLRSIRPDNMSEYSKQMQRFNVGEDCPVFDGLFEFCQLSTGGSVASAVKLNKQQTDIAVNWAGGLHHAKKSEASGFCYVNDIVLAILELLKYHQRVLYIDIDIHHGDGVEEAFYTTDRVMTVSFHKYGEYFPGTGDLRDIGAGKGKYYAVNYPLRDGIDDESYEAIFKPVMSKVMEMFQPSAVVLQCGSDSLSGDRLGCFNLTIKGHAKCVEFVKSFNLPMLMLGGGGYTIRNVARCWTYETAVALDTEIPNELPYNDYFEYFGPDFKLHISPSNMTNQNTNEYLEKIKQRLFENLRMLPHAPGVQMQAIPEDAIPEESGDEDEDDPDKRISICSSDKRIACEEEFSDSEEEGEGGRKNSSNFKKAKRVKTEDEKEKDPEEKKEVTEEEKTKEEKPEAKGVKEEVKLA

IC50 [1]	HDAC6 selectivity (fold) [2]	IC50 [2]	SMILES
> 50000 nM	482 fold	104 nM	O=S(=O)(C1CCN(C2CCOCC2)CC1)N(Cc1cn2ccc(-c3nnc(C(F)F)o3)cc2n1)c1ccccc1 [Compound 4219, N-((7-(5-(difluoromethyl)-1,3,4-oxadiazol-2-yl)imidazo[1,2-a]pyridin-2-yl)methyl)-N-phenyl-1-(tetrahydro-2H-pyran-4-yl)piperidine-4-sulfonamide]
> 50000 nM	327 fold	153 nM	O=C(N1CCN(S(=O)(=O)N(Cc2cn3ccc(-c4nnc(C(F)F)o4)cc3n2)c2ccccc2)CC1)C(F)(F)F [Compound 4270, N-((7-(5-(difluoromethyl)-1,3,4-oxadiazol-2-yl)imidazo[1,2-a]pyridin-2-yl)methyl)-N-phenyl-4-(2,2,2-trifluoroacetyl)piperazine-1-sulfonamide]
> 50000 nM	806 fold	62 nM	O=S(=O)(N1CCN(C2CC3(COC3)C2)CC1)N(Cc1cn2ccc(-c3nnc(C(F)F)o3)cc2n1)c1cccc(F)c1 [Compound 4623, N-((7-(5-(difluoromethyl)-1,3,4-oxadiazol-2-yl)imidazo[1,2-a]pyridin-2-yl)methyl)-N-(3-fluorophenyl)-4-(2-oxaspiro[3.3]heptan-6-yl)piperazine-1-sulfonamide]
> 50000 nM	410 fold	122 nM	O=S(=O)(C1CCN(C2CCC2)CC1)N(Cc1cn2ccc(-c3nnc(C(F)F)o3)cc2n1)c1ccccc1 [Compound 4217, 1-cyclobutyl-N-((7-(5-(difluoromethyl)-1,3,4-oxadiazol-2-yl)imidazo[1,2-a]pyridin-2-yl)methyl)-N-phenylpiperidine-4-sulfonamide]
> 50000 nM	585 fold	85.5 nM	CC(=O)N1CCN(S(=O)(=O)N(Cc2cn3ccc(-c4nnc(C(F)F)o4)cc3n2)c2ccccc2)CC1 [Compound 4265, 4-acetyl-N-((7-(5-(difluoromethyl)-1,3,4-oxadiazol-2-yl)imidazo[1,2-a]pyridin-2-yl)methyl)-N-phenylpiperazine-1-sulfonamide]
> 50000 nM	397 fold	126 nM	O=S(=O)(N1CCN(C2CCOCC2)CC1)N(Cc1cn2ccc(-c3nnc(C(F)F)o3)cc2n1)c1ccccc1 [Compound 4263, N-((7-(5-(difluoromethyl)-1,3,4-oxadiazol-2-yl)imidazo[1,2-a]pyridin-2-yl)methyl)-N-phenyl-1-(tetrahydro-2H-pyran-4-yl)piperazine-1-sulfonamide]
> 50000 nM	167 fold	299 nM	O=S(=O)(N1CCN(C2CCCCC2)CC1)N(Cc1cn2ccc(-c3nnc(C(F)F)o3)cc2n1)c1ccccc1 [Compound 4262, 4-cyclohexyl-N-((7-(5-(difluoromethyl)-1,3,4-oxadiazol-2-yl)imidazo[1,2-a]pyridin-2-yl)methyl)-N-phenylpiperazine-1-sulfonamide]
> 50000 nM	16 fold	3120 nM	CC(C)(C)OC(=O)N1CCC(S(=O)(=O)N(Cc2cn3ccc(-c4nnc(C(F)(F)F)o4)cc3n2)c2cccc(F)c2)CC1 [Compound 6893, tert-butyl 4-(N-(3-fluorophenyl)-N-((7-(5-(trifluoromethyl)-1,3,4-oxadiazol-2-yl)imidazo[1,2-a]pyridin-2-yl)methyl)sulfamoyl)piperidine-1-carboxylate]
> 50000 nM	431 fold	116 nM	O=C(N1CCC(S(=O)(=O)N(Cc2cn3ccc(-c4nnc(C(F)F)o4)cc3n2)c2cccc(F)c2)CC1)C(F)(F)F [Compound 4250, N-((7-(5-(difluoromethyl)-1,3,4-oxadiazol-2-yl)imidazo[1,2-a]pyridin-2-yl)methyl)-N-(3-fluorophenyl)-1-(2,2,2-trifluoroacetyl)piperidine-4-sulfonamide]
> 50000 nM	433 fold	116 nM	O=S(=O)(C1CCN(C2CCCCC2)CC1)N(Cc1cn2ccc(-c3nnc(C(F)F)o3)cc2n1)c1ccccc1 [Compound 4218, 1-cyclohexyl-N-((7-(5-(difluoromethyl)-1,3,4-oxadiazol-2-yl)imidazo[1,2-a]pyridin-2-yl)methyl)-N-phenylpiperidine-4-sulfonamide]
> 50000 nM	462 fold	108 nM	CN(C)C(=O)N1CCN(S(=O)(=O)N(Cc2cn3ccc(-c4nnc(C(F)F)o4)cc3n2)c2cccc(F)c2)CC1 [Compound 4314, 4—(N-((7-(5-(difluoromethyl)-1,3,4-oxadiazol-2-yl)imidazo[1,2-a]pyridin-2-yl)methyl)-N-(3-fluorophenyl)sulfamoyl)-N, N-dimethylpiperazine-1-carboxamide]
> 50000 nM	635 fold	78.8 nM	CC(CO)N1CCC(S(=O)(=O)N(Cc2cn3ccc(-c4nnc(C(F)F)o4)cc3n2)c2cccc(F)c2)CC1 (stereo not drawn) [Compound 4239, N-((7-(5-(difluoromethyl)-1,3,4-oxadiazol-2-yl)imidazo[1,2-a]pyridin-2-yl)methyl)-N-(3-fluorophenyl)-1-(1-hydroxypropan-2-yl)piperidine-4-sulfonamide]
> 50000 nM	530 fold	94.3 nM	O=S(=O)(C1CCN(C2CCOCC2)CC1)N(Cc1cn2ccc(-c3nnc(C(F)F)o3)cc2n1)c1cccc(F)c1 [Compound 4243, N-((7-(5-(difluoromethyl)-1,3,4-oxadiazol-2-yl)imidazo[1,2-a]pyridin-2-yl)methyl)-N-(3-fluorophenyl)-1-(tetrahydro-2H-pyran-4-yl)piperidine-4-sulfonamide]
